Experimental data published in patent publication US8476461B2, “Dipyrromethene-boron hydrophilic fluorescent compounds” (Centre National de la Recherche Scientifique (C.N.R.S.), priority 2008, dated 2013).
Marks after values point to notes of the source that are not given here.

Legend:
[1] = Optical / fluorescence properties (absorption, emission, extinction coefficient, quantum yield, lifetime); type: physicochemical
[2] = Water solubility and hydrophilic nature; type: physicochemical; conditions: for solubility in water (in words): water at pH=7, in carboxylate form
[3] = asterisk: in water and PBS buffer

| Compound | Φ ([1]; in dichloromethane) [%] | ε ([1]; in dichloromethane) [M⁻¹ cm⁻¹] | λabs ([1]; in dichloromethane) [nm] | λem ([1]; in dichloromethane) [nm] | Φ [1, 3] | ε [1, 3] | λabs [1, 3] | λem [1, 3] | water-soluble (in words) [2] | further results |
| --- | --- | --- | --- | --- | --- | --- | --- | --- | --- | --- |
| COCCOCC#C[B-]1(C#CCOCCOC)n2c(C)cc(C)c2C(c2ccc(I)cc2)=C2C(C)=CC(C)=[N+]21 [Ia-1] | 65 | 90000 | 500 | 511 |  |  |  |  |  |  |
| CCC1=C(C)C2=C(c3ccc(I)cc3)c3c(C)c(CC)c(C)n3[B-](C#CCOCCOC)(C#CCOCCOC)[N+]2=C1C [Ia-2] | 80 | 82000 | 522 | 488 |  |  |  |  |  |  |
| COCCOCC#C[B-]1(C#CCOCCOC)n2c(/C=C/c3ccc(OCCOCCOC)cc3)cc(C)c2C(c2ccc(I)cc2)=C2C(C)=CC(/C=C/c3ccc(OCCOCCOC)cc3)=[N+]21 [Ia-3] | 75 | 126600 | 646 | 371 |  |  |  |  |  |  |
| CCOC(=O)c1ccc(C2=C3C(C)=C(CC)C(C)=[N+]3[B-](C#CCOCCOC)(C#CCOCCOC)n3c(C)c(CC)c(C)c32)cc1 [Ia-6] | 85 | 80000 | 522 | 488 |  |  |  |  |  |  |
| COCCOCC#C[B-]1(C#CCOCCOC)n2c(C)cc(C)c2C(c2ccc(C(=O)O)cc2)=C2C(C)=CC(C)=[N+]21 [Ia-9] | 50 | 78500 | 501 | 513 | 60* % | 74000* M^−1 cm^−1 | 494* nm | 506* nm | water-soluble | solubility in water (in words) [2]: soluble in water |
| CCC1=C(C)C2=C(c3ccc(I)cc3)c3c(C)c(CC)c(C)n3[B-](C#CCN(C)C)(C#CCN(C)C)[N+]2=C1C [Ic-0] |  |  |  |  |  |  |  |  |  | ζ (fluorescence lifetime) ([1]; CH2Cl2): 6.6 ns; Fluorescence λem ([1]; CH2Cl2, 6.1×10^−7 M): 533 nm; Fluorescence φ ([1]; CH2Cl2, 6.1×10^−7 M): 48% |
| CCC1=C(C)C2=C(c3ccc(I)cc3)c3c(C)c(CC)c(C)n3[B-](C#CC[N+](C)(C)CCCS(=O)(=O)[O-])(C#CC[N+](C)(C)CCCS(=O)(=O)[O-])[N+]2=C1C [Ic-1] |  |  |  |  | 61* % | 72000* M^−1 cm^−1 | 519* nm | 530* nm | water-soluble | Fluorescence λem ([1]; EtOH): 532 nm; Fluorescence φ ([1]; EtOH): 71%; fluorescence lifetime ([1]; H2O): 7.0 ns; Fluorescence λem ([1]; PBS buffer, 4.6×10^−7 M): 530 nm; Fluorescence φ ([1]; PBS buffer, 4.6×10^−7 M): 61% |
| CCOC(=O)c1ccc(C2=C3C(C)=C(CC)C(C)=[N+]3[B-](C#CC[N+](C)(C)CCCS(=O)(=O)[O-])(C#CC[N+](C)(C)CCCS(=O)(=O)[O-])n3c(C)c(CC)c(C)c32)cc1 [Ic-2] |  |  |  |  |  |  |  |  |  | Fluorescence λem ([1]; EtOH): 533 nm; Fluorescence φ ([1]; EtOH): 45% |
| CCC1=C(C)C2=C(c3ccc(C#Cc4ccc5ccc6c(C(=O)OCCOCCOC)ccc7ccc4c5c76)cc3)c3c(C)c(CC)c(C)n3[B-](C#CC[N+](C)(C)CCCS(=O)(=O)[O-])(C#CC[N+](C)(C)CCCS(=O)(=O)[O-])[N+]2=C1C [Ic-3] |  |  |  |  |  |  |  |  |  | Fluorescence λem ([1]; EtOH): 533 nm; Fluorescence φ ([1]; EtOH): 39% |

More lines, main results first:

| Φ ([1]; in dichloromethane) [%] | ε ([1]; in dichloromethane) [M⁻¹ cm⁻¹] | λabs ([1]; in dichloromethane) [nm] | λem ([1]; in dichloromethane) [nm] | Φ [1, 3] | ε [1, 3] | λabs [1, 3] | λem [1, 3] | water-soluble (in words) [2] | Compound | further results |
| --- | --- | --- | --- | --- | --- | --- | --- | --- | --- | --- |
|  |  |  |  | 70* % | 65000* M^−1 cm^−1 | 517* nm | 530* nm | water-soluble | CCC1=C(C)C2=C(c3ccc(C(=O)O)cc3)c3c(C)c(CC)c(C)n3[B-](C#CCOCCOC)(C#CCOCCOC)[N+]2=C1C [Ia-10] | solubility in water (in words) [2]: soluble in water |
| 74 | 118000 | 647 | 662 |  |  |  |  |  | COCCOCC#C[B-]1(C#CCOCCOC)n2c(/C=C/c3ccc(OCCOCCOC)cc3)cc(C)c2C(c2ccc(C(=O)O)cc2)=C2C(C)=CC(/C=C/c3ccc(OCCOCCOC)cc3)=[N+]21 [Ia-11] |  |
|  |  |  |  | 70* % | 70000* M^−1 cm^−1 | 564* nm | 578* nm | water-soluble | COCCOCC#C[B-]1(C#CCOCCOC)n2c(/C=C/c3ccc(OCCOCCOC)cc3)cc(C)c2C(c2ccc(C(=O)O)cc2)=C2C(C)=CC(C)=[N+]21 [Ia-12] | solubility in water (in words) [2]: soluble in water |
| 30 | 65000 | 500 | 513 |  |  |  |  |  | COCCOCC#C[B-]1(C#CCOCCOC)n2c(C)cc(C)c2C(c2ccc(C(=O)NCCN)cc2)=C2C(C)=CC(C)=[N+]21 [Ia-13] |  |
| 80 | 84000 | 501 | 511 |  |  |  |  |  | CCOC(=O)CNC(=O)c1ccc(C2=C3C(C)=CC(C)=[N+]3[B-](C#CCOCCOC)(C#CCOCCOC)n3c(C)cc(C)c32)cc1 [Ia-14] |  |
| 60 | 67000 | 501 | 511 | 50* % | 62000* M^−1 cm^−1 | 495* nm | 507* nm | water-soluble | COCCOCC#C[B-]1(C#CCOCCOC)n2c(C)cc(C)c2C(c2ccc(C(=O)NCC(=O)O)cc2)=C2C(C)=CC(C)=[N+]21 [Ia-15] |  |
